Measured values taken from patent US20220000403A1, “NEUROT[…] DETECTION SYSTEM AND METHOD OF DETECTING A NEUROT[…]” (Ocumove ApS, priority 2018, published 2022).

What was measured:
Assay type in all cases: in vivo, human
patient with ADHD [1] = test: Frequency analysis (FFT) of closed-eye movement signal before/after medication, Example 5; conditions: one tablet of 10 mg
Description: (§1) Strain gauge sensors (SleepSense Limb Movement Sensors) from SleepSense were used as eye movement sensors. These where connected to a Digital Brain Electric Activity Mapping KT88 EEG apparatus as a recording and frequency analysis arrangement.
(§2) The subjects were instructed to keep their eyes closed, but to refrain from falling asleep.
(§3) The signal from the sensors where filtered by one of two different filters; a 2.5 Hz low pass filter with 24 dB reduction.
(§4) A signal was recorded over a period of 5 minutes. 1 minute of signal is illustrated in FIG. 3.
Using eye movement signals recorded as explained in example 1, frequency analysis was performed to determine a frequency distribution. However, only a 10 seconds period corresponding to the first 10 seconds of the latency time of example 2 was used. A Fast Fourier Transformation (FFT) based algorithm was used, with a 100 mHz resolution.
Using eye movement signals recorded as explained in example 1, frequency analysis was performed to determine a frequency distribution. A Fast Fourier Transformation (FFT) based algorithm was used, with a 100 mHz resolution.
In example 5, signals were recorded on a patient with ADHD.
On FIG. 6A is the result when the patient was in an initial, unmedicated state. […]

subjects with ADHD = test: Eye movement signal parameters before/after methylphenidate, ADHD subjects (Example 6.6)
Description: as §1, §2, §3, §4
(§5) Eye movement signals were recorded using the methods described in example 1.
Data from 7 subjects with ADHD examined before treatment. Hereafter methylphenidate was administered, and after a subjective assessment of an effect thereof, the measurement was repeated. The sensors were in place during the entire test.

subjects with ADD = test: Eye movement signal parameters before/after methylphenidate, ADD subjects (Example 6.6)
Description: as §1, §2, §3, §4, §5
In 3 out of 4 cases, an increase in the amplitude and a decrease in the average frequency was observed.

[2] = system: subjects with an AHDH or ADD diagnosis; test: Maximum FFT amplitude before/after startup of methylphenidate treatment (Example 7.3); conditions: for decrease in eye activity (RC): no positive effect of the treatment
Description: A number of sample signals were recorded. Each sample was recorded over a period of 360 seconds. Only the middle 240 seconds are used, as the first 60 seconds and the last 60 second of the signal is discarded to avoid introducing artifacts related to the startup and termination of the test and the subject getting used to the eye sensors etc.
The signals were subjected to frequency analysis by FFT with 100 mHz solution.
Maximum amplitude of the frequency distribution (i.e. max FFT amplitude) is identified.
20 subjects with an AHDH or ADD diagnosis were evaluated with respect to effect of startup of methylphenidate treatment. A sample was recorded for each subject in accordance with example 7.2, and a maximum FFT amplitude was outputted from the frequency analysis arrangement (maximum FFT amplitude before, MAB). Thereafter, a startup dose of methylphenidate was prescribed for each subject. After ingestion, a further sample was recorded for each subject, and a maximum FFT amplitude was outputted from the frequency analysis arrangement (maximum FFT amplitude after, MAA).

patient with ADHD [3] = test: Number of large eye movements before/after medication, Example 5
Description: as §1, §2, §3, §4
A large eye movement number was established as the number of times the signals exceeded 50 μV, or moved below −50 μV. This signifies the number of large eye movements.
On FIG. 6A is the result when the patient was in an initial, unmedicated state. A second measurement was made after administering suitable ADHD-medication to the patient (one tablet of 10 mg of methylphenidate), this is shown in FIG. 6B.
Furthermore, the number of eye movements was analyzed as in example 1, before and after medication.

COC(=O)C(c1ccccc1)C1CCCCN1 (centres unmarked) [methylphenidate]
maximum value of frequency components after medication, reduction to (patient with ADHD [1]; 10 s period, FIG. 6C vs 6D): ~20% | frequency content after medication, reduction to (patient with ADHD [1]; 5 min signal, FIG. 6A vs 6B): ~50% | cases with a fall in the amplitude and an increase in the average frequency (subjects with ADHD; of 7 subjects with ADHD, after methylphenidate): 6 cases | DATA B Av Fq (subjects with ADHD; subject 143/144, after treatment, before 3.241667): 4.858 | DATA B FFT Amplitude (subjects with ADHD; subject 143/144, after treatment, before 15): 7 | DATA B Av Amp (subjects with ADHD; subject 143/144, after treatment, before −0.37474): 0.001138 | DATA B Av Fq (subjects with ADHD; subject 167/168, after treatment, before 4.511667): 4.647 | DATA B FFT Amplitude (subjects with ADHD; subject 167/168, after treatment, before 10): 9.6 | DATA B Av Amp (subjects with ADHD; subject 167/168, after treatment, before −0.199017): 0.04479 | DATA B Av Amp (subjects with ADHD; subject 177/178, after treatment, before 0.578600): 0.5056 | DATA B Av Fq (subjects with ADHD; subject 177/178, after treatment, before 2.05333): 2.23 | DATA B FFT Amplitude (subjects with ADHD; subject 177/178, after treatment, before 28): 26 | DATA B Av Amp (subjects with ADHD; subject 179/180, after treatment, before 0.002030): 0.04999 | DATA B Av Fq (subjects with ADHD; subject 179/180, after treatment, before 3.07500): 3.695 | DATA B FFT Amplitude (subjects with ADHD; subject 179/180, after treatment, before 9.5): 4.1 | DATA B Av Amp (subjects with ADHD; subject 187/188, after treatment, before 0.061771): 0.09263 | DATA B Av Fq (subjects with ADHD; subject 187/188, after treatment, before 2.73667): 2.553 | DATA B FFT Amplitude (subjects with ADHD; subject 187/188, after treatment, before 9.5): 12 | DATA B Av Amp (subjects with ADHD; subject 189/190, after treatment, before 0.012759): 0.007571 | DATA B Av Fq (subjects with ADHD; subject 189/190, after treatment, before 3.79500): 3.947 | DATA B FFT Amplitude (subjects with ADHD; subject 189/190, after treatment, before 8.5): 5.0 | DATA B Av Amp (subjects with ADHD; subject 192/193, after treatment, before 0.046206): 0.000667 | DATA B Av Fq (subjects with ADHD; subject 192/193, after treatment, before 2.425000): 4.838 | DATA B FFT Amplitude (subjects with ADHD; subject 192/193, after treatment, before 22): 8.0 | cases with an increase in the amplitude and a decrease in the average frequency (subjects with ADD; out of 4 ADD subjects treated with methylphenidate): 3 cases | DATA B Av Amp (subjects with ADD; subject 146/147, after treatment, before 0.031965): 0.03275 | DATA B FFT Amplitude (subjects with ADD; subject 146/147, after treatment, before 3): 6.1 | DATA B Av Fq (subjects with ADD; subject 146/147, after treatment, before 5.07667): 4.083 | DATA B Av Amp (subjects with ADD; subject 152/153, after treatment, before 0.061080): 0.04852 | DATA B Av Fq (subjects with ADD; subject 152/153, after treatment, before 3.62833): 4.618 | DATA B FFT Amplitude (subjects with ADD; subject 152/153, after treatment, before 5.5): 4.2 | DATA B Av Amp (subjects with ADD; subject 170/171, after treatment, before 0.030927): 0.02591 | DATA B FFT Amplitude (subjects with ADD; subject 170/171, after treatment, before 2.5): 2.6 | DATA B Av Fq (subjects with ADD; subject 170/171, after treatment, before 5.80555): 5.523 | DATA B Av Amp (subjects with ADD; subject 184/185, after treatment, before 0.054841): 0.05472 | DATA B Av Fq (subjects with ADD; subject 184/185, after treatment, before 4.42333): 3.64 | DATA B FFT Amplitude (subjects with ADD; subject 184/185, after treatment, before 5.0): 8.0 | Eff. M.: Evaluation of effect of methylphenidate ([2]; subject 143 ADHD): Good | RC: relative change in FFT amplitude ([2]; subject 143 ADHD): −53 | MAA: Maximum FFT amplitude after ([2]; subject 143 ADHD, MAB 14.3): 6.7 | Eff. M.: Evaluation of effect of methylphenidate ([2]; subject 146): No | RC: relative change in FFT amplitude ([2]; subject 146): 100 | MAA: Maximum FFT amplitude after ([2]; subject 146, MAB 2.8): 5.6 | Eff. M.: Evaluation of effect of methylphenidate ([2]; subject 148 ADHD): Good | RC: relative change in FFT amplitude ([2]; subject 148 ADHD): −60 | MAA: Maximum FFT amplitude after ([2]; subject 148 ADHD, MAB 8.7): 3.5 | Eff. M.: Evaluation of effect of methylphenidate ([2]; subject 152): Good | RC: relative change in FFT amplitude ([2]; subject 152): −56 | MAA: Maximum FFT amplitude after ([2]; subject 152, MAB 4.58): 2.0 | Eff. M.: Evaluation of effect of methylphenidate ([2]; subject 155): No | RC: relative change in FFT amplitude ([2]; subject 155): 17 | MAA: Maximum FFT amplitude after ([2]; subject 155, MAB 3.6): 4.2 | decrease in eye activity (RC) ([2]; subject 177): below 10% | Eff. M.: Evaluation of effect of methylphenidate ([2]; subject 177 ADHD): No | RC: relative change in FFT amplitude ([2]; subject 177 ADHD): −7 | MAA: Maximum FFT amplitude after ([2]; subject 177 ADHD, MAB 26.7): 24.8 | Eff. M.: Evaluation of effect of methylphenidate ([2]; subject 179 ADHD): Good | RC: relative change in FFT amplitude ([2]; subject 179 ADHD): −65 | MAA: Maximum FFT amplitude after ([2]; subject 179 ADHD, MAB 8.9): 3.1 | Eff. M.: Evaluation of effect of methylphenidate ([2]; subject 184): Good | RC: relative change in FFT amplitude ([2]; subject 184): 65 | MAA: Maximum FFT amplitude after ([2]; subject 184, MAB 4.8): 7.9 | Eff. M.: Evaluation of effect of methylphenidate ([2]; subject 187 ADHD): Good | RC: relative change in FFT amplitude ([2]; subject 187 ADHD): 19 | MAA: Maximum FFT amplitude after ([2]; subject 187 ADHD, MAB 9.0): 10.7 | Eff. M.: Evaluation of effect of methylphenidate ([2]; subject 189): Good | RC: relative change in FFT amplitude ([2]; subject 189): −39 | MAA: Maximum FFT amplitude after ([2]; subject 189, MAB 9.0): 5.5 | Eff. M.: Evaluation of effect of methylphenidate ([2]; subject 192 ADHD): Good | RC: relative change in FFT amplitude ([2]; subject 192 ADHD): −66 | MAA: Maximum FFT amplitude after ([2]; subject 192 ADHD, MAB 21.4): 7.3 | Eff. M.: Evaluation of effect of methylphenidate ([2]; subject 197): Good | RC: relative change in FFT amplitude ([2]; subject 197): −56 | MAA: Maximum FFT amplitude after ([2]; subject 197, MAB 14.2): 6.2 | Eff. M.: Evaluation of effect of methylphenidate ([2]; subject 202 ADHD): No | RC: relative change in FFT amplitude ([2]; subject 202 ADHD): 33 | MAA: Maximum FFT amplitude after ([2]; subject 202 ADHD, MAB 34.4): 45.9 | Eff. M.: Evaluation of effect of methylphenidate ([2]; subject 204 ADHD): Good | RC: relative change in FFT amplitude ([2]; subject 204 ADHD): −66 | MAA: Maximum FFT amplitude after ([2]; subject 204 ADHD, MAB 6.2): 2.1 | Eff. M.: Evaluation of effect of methylphenidate ([2]; subject 210 ADHD): No | RC: relative change in FFT amplitude ([2]; subject 210 ADHD): 14 | MAA: Maximum FFT amplitude after ([2]; subject 210 ADHD, MAB 7.6): 8.7 | Eff. M.: Evaluation of effect of methylphenidate ([2]; subject 212): No | RC: relative change in FFT amplitude ([2]; subject 212): 27 | MAA: Maximum FFT amplitude after ([2]; subject 212, MAB 13.1): 16.7 | Eff. M.: Evaluation of effect of methylphenidate ([2]; subject 248 ADHD): No | RC: relative change in FFT amplitude ([2]; subject 248 ADHD): 14 | MAA: Maximum FFT amplitude after ([2]; subject 248 ADHD, MAB 15.9): 18.2 | Eff. M.: Evaluation of effect of methylphenidate ([2]; subject 250): Good | RC: relative change in FFT amplitude ([2]; subject 250): −24 | MAA: Maximum FFT amplitude after ([2]; subject 250, MAB 15.8): 12.0 | Eff. M.: Evaluation of effect of methylphenidate ([2]; subject 255): Good | RC: relative change in FFT amplitude ([2]; subject 255): −30 | MAA: Maximum FFT amplitude after ([2]; subject 255, MAB 22.9): 16.0 | Eff. M.: Evaluation of effect of methylphenidate ([2]; subject 258): No | RC: relative change in FFT amplitude ([2]; subject 258): −2 | MAA: Maximum FFT amplitude after ([2]; subject 258, MAB 11.2): 11.0 | decrease in eye activity (RC) ([2]; subject 258): below 10% | Number of eye movements after medication (patient with ADHD [3]; 1-60 s, signal exceeding +/− 50 μV, before 54): 60 | Number of eye movements after medication (patient with ADHD [3]; 61-120 s, before 15): 0 | Number of eye movements after medication (patient with ADHD [3]; 121-180 s, before 23): 2 | Number of eye movements after medication (patient with ADHD [3]; 181-240 s, before 16): 1 | Number of eye movements after medication (patient with ADHD [3]; 241-300 s, before 14): 2
